What was measured:
Format in all cases: cell-based
ERα [1] = target: T1, ERα (Homo sapiens (Human), UniProt P03372); test: ERα degradation assay in MCF7 cells; details: 24 hours, % ER positive cells, read-out: Relative IC50
Protocol: The purpose of the following ERα degradation assay is to measure the degradation of ERα by a test compound in an ERα positive breast cancer cell line such as MCF7.
Culture MCF7 (purchased from ATCC HTB-22) cells in DMEM media supplemented with 10% FBS, 0.01 mg/mL human insulin 1 and 1% penicillin/streptomycin antibiotics and plate in 384-well flat-bottom plates at a density of 4,000 cells per well in phenol red free DMEM media (20 μL) containing 10% charcoal stripped FBS. Incubate the cells overnight in a cell culture incubator (5% CO2, 95% relative humidity and 37° C.) and allow the cells to attach to the plate. The following day dose the cells with the test compound. Use an Echo 555 acoustic dispenser to prepare test compound serial dilutions (1:3) in a range from 6 μM to 0.0003 μM. Dose the cells with the addition of 5 μL from the serial dilution plate to the cell plate producing a final DMSO concentration of 0.2% with a final test compound concentration dose range between 2 and 0.0001 μM. For the maximum point, use media containing 0.2% of DMSO and for the minimum point, use fulvestrant diluted at 2 μM final concentrations in the growth media containing 0.2% DMSO. After dosing with the test compound, incubate the cell plates at 37° C. and 5% CO2 for 24 hours. Fix the cells by adding 14% para-formaldehyde (10 μL) for 30 minutes at room temperature. Wash the cells once with PBS (20 μL) and incubate with PBS (20 μL) containing 0.5% (v/v) TWEEN® 20 for 1 hour. Wash the cells with PBS containing 0.05% TWEEN® 20 (2×) and block with 3% BSA in PBS containing 0.05% TWEEN® 20 and 0.1% TRITON™ X-100 (20 μL/well) for 1 hour at room temperature. Add 1:500 Primary antibody (20 μL) (ERα (Clone SP1) monoclonal rabbit antibody # RM-9101-S, Thermo Scientific) dilution in 1% BSA in PBS containing 0.05% TWEEN® 20 per well, seal the plates and incubate overnight at 4° C. The following day wash the cells with PBS containing 0.05% TWEEN® 20 (2×) and incubate with secondary antibody (20 μL/well) (1:1000 dilution, Goat anti-rabbit IgM ALEXA FLUOR™ 488) in PBS 1% BSA for 105 minutes at room temperature. […] Seal the plates and incubate 1 hour at room temperature on the bench (preserved from light). Scan the plates with ACUMEN EXPLORER™ [Laser-scanning fluorescence microplate cytometer manufactured by TTP LABTECH LTD] to measure ERα. Image analysis is based on cellular fluorescent signals for identifying positive cells. Identify ER positive cells by mean intensity. Use total intensity at 575-640 nm from propidium iodide/DNA to identify individual cells. Assay output is % ER positive cells. Determine the IC50 by curve fitting to a four parameter logistic for each output using GENE DATA™.

[2] = target: Y537N mutant ERα receptor (Homo sapiens, UniProt P03372, Y537N); test: PRα inhibition (ERα functional antagonism) cell assay in MCF7-ESR1 Y537N 682 CRISPR cells; details: MCF7 Y537N 682 CRISPR cells, 72 hours, % PR positive cells; read-out: Relative IC50
Protocol: An antagonist in this assay is expected to block the function of the ERα receptor.
Incubate the cells overnight in a cell culture incubator (5% CO2, 95% relative humidity and 37° C.) and allow the cells to attach to the plate. The following day dose the cells with the test compound. Use an Echo 555 acoustic dispenser to prepare compound serial dilutions (1:3) in a range from 6 μM to 0.0003 μM. Dose the cells with the addition of 5 μL from the serial dilution plate to the cell plate producing a final DMSO concentration of 0.2% with a final test compound concentration dose range between 2 and 0.0001 μM. For the maximum point use media containing 0.2% of DMSO and for the minimum point, use fulvestrant diluted at 2 μM final concentrations in the growth media containing 0.2% DMSO. After dosing with test compound, incubate the cell plates at 37° C. and 5% CO2 for 72 hours. Fix the cells by adding 14% para-formaldehyde (10 μL) for 30 minutes at room temperature. Wash the cells with PBS (1×20 μL) and incubate with PBS (20 μL) of containing 0.5% (v/v) TWEEN® 20 for 1 hour. Wash the cells with PBS (2×20 μL) 0.05% TWEEN® 20, and block with 3% BSA/PBS 0.05% TWEEN® 20, 0.1% TRITON™ X-100 (20 μL/well) for 1 hour at room temperature. Add 1:500 primary antibody (20 μL) (PR monoclonal mouse anti-human antibody, clone PgR 636 Dako, M3569) dilution in 1% BSA/PBS 0.05 TWEEN® 20 per well, seal the plates and incubate overnight at 4° C.
The following day, wash the cells with PBS […] (2×20 μL) and incubate with secondary antibody (20 μL/well) (1:1000 dilution, Goat anti-rabbit IgM ALEXA FLUOR™ 488) in PBS 1% BSA for 105 minutes at room temperature. […] Seal the plates and incubate 1 hour at room temperature on the bench (preserved from light). Scan the plates with ACUMEN EXPLORER™ [Laser-scanning fluorescence microplate cytometer manufactured by TTP LABTECH LTD] to measure PRα. Image analysis is based on cellular fluorescent signals for identifying positive cells. Identify PR positive cells by mean intensity. Use total intensity at 575-640 nm from propidium iodide/DNA to identify individual cells. Assay output is % PR positive cells. Determine the IC50 by curve fitting to a four parameter logistic for each output using GENE DATA™.

ERα [3] = target: T1, ERα; test: PRα inhibition (ERα functional antagonism) cell assay in MCF7 cells; details: MCF7 cells pretreated with 0.47 nM estradiol, % PRα positive cells; read-out: Relative IC50
From the text: The purpose of the following PRα inhibition (ERα functional antagonism) cell assay is to determine the antagonistic activity of a test compound against the ERα receptor. An antagonist in this assay is expected to block the function of the ERα receptor.
Carry out the assay conditions as detailed in the ERα degradation Cell base Acumen assay above, using the MCF7 cell line except that, prior to test compound dispensing, remove the media from the cell plate and pretreat all wells except for the negative control wells (column 24 of the plate) with assay media containing 0.47 nM estradiol for 30 minutes. In this assay, carry out immunostaining for the detection of PRα and scan the plates with ACUMEN EXPLORER™ [Laser-scanning fluorescence microplate cytometer manufactured by TTP LABTECH LTD] to measure PRα. Image analysis is based on cellular fluorescent signals for identifying positive cells. Identify PRα positive cells by mean intensity. Use total intensity at 575-640 from propidium iodide/DNA to identify individual cells. Assay output is % PRα positive cells. Determine the IC50 by curve fitting to a four parameter logistic for each output using GENE DATA™.

T1 sequence (P03372 whole entry): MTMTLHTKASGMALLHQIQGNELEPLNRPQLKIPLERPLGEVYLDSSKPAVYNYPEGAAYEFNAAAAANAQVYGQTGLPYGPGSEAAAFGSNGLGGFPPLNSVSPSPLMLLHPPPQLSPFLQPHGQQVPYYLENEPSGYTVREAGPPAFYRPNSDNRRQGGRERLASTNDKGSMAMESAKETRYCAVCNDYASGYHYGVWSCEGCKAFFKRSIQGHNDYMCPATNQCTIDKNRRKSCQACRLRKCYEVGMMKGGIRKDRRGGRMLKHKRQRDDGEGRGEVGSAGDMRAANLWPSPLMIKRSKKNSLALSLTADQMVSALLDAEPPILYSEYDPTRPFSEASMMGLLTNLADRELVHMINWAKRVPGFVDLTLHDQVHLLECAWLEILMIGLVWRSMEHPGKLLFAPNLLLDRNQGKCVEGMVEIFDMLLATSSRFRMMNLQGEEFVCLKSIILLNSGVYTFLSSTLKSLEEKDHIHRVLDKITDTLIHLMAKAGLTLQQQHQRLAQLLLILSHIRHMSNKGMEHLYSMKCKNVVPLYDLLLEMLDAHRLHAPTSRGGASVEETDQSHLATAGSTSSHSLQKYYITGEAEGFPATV

DC50 (ERα [1]) [nM] | IC50 [2] [nM] | IC50 (ERα [3]) [nM] | Compound
52.2 ± 6.51 | 14.5 ± 2.62 | 163 | Oc1ccc2c3c(cnc2c1)-c1cccc(C(F)(F)F)c1OC3c1ccc(OCCN2CC(CF)C2)cc1 (racemic) [Example 2, 5-(4-{2-[3-(fluoromethyl)azetidin-1-yl]ethoxy}phenyl)-7-(trifluoromethyl)-5H-[1]benzopyrano[4,3-c]quinolin-2-ol]
22.4 ± 0.355 | 38.5 ± 3.87 | 76.3 ± 168 | Oc1ccc2c3c(cnc2c1)-c1cccc(Cl)c1OC3c1ccc(OCCN2CC(CF)C2)cc1 (racemic) [Example 4, 7-chloro-5-(4-{2-[3-(fluoromethyl)azetidin-1-yl]ethoxy}phenyl)-5H-[1]benzopyrano[4,3-c]quinolin-2-ol]
36.5 ± 37.4 | 66.1 ± 15.5 | 118 ± 12.3 | Oc1ccc2c3c(cnc2c1)-c1ccc(F)cc1OC3c1ccc(OCCN2CC(CF)C2)cc1 (racemic) [Example 5, 8-fluoro-5-(4-{2-[3-(fluoromethyl)azetidin-1-yl]ethoxy}phenyl)-5H-[1]benzopyrano[4,3-c]quinolin-2-ol]
50.9 ± 6.89 | 63.2 ± 16.1 | 82.6 ± 5.68 | Oc1ccc2c3c(cnc2c1)-c1cccc(F)c1OC3c1ccc(OCCN2CC(CF)C2)cc1 (racemic) [Example 6, 7-fluoro-5-(4-{2-[3-(fluoromethyl)azetidin-1-yl]ethoxy}phenyl)-5H-[1]benzopyrano[4,3-c]quinolin-2-ol]
78.8 ± 7.38 | 127 | 113 ± 20.9 | Cc1ccc2c(c1)OC(c1ccc(OCCN3CC(CF)C3)cc1)c1c-2cnc2cc(O)ccc12 (racemic) [Example 7, 5-(4-{2-[3-(fluoromethyl)azetidin-1-yl]ethoxy}phenyl)-8-methyl-5H-[1]benzopyrano[4,3-c]quinolin-2-ol]
17.4 ± 8.75 | 41.2 ± 6.57 | 68.3 ± 22.7 | Cc1cccc2c1OC(c1ccc(OCCN3CC(CF)C3)cc1)c1c-2cnc2cc(O)ccc12 (racemic) [Example 8, 5-(4-{2-[3-(fluoromethyl)azetidin-1-yl]ethoxy}phenyl)-7-methyl-5H-[1]benzopyrano[4,3-c]quinolin-2-ol]
51.2 ± 16.3 | 24.9 ± 7.39 | 121 ± 53.7 | Oc1ccc2c3c(cnc2c1)-c1cccc(C(F)(F)F)c1OC3c1ccc(OCCN2CC(CF)C2)cc1 (single isomer, unassigned) [Example 2A, 5-(4-{2-[3-(Fluoromethyl)azetidin-1-yl]ethoxy}phenyl)-7-(trifluoromethyl)-5H-[1]benzopyrano[4,3-c]quinolin-2-ol]
> 2000 | 1640 ± 223 | > 2000 | Oc1ccc2c3c(cnc2c1)-c1cccc(C(F)(F)F)c1OC3c1ccc(OCCN2CC(CF)C2)cc1 (single isomer, unassigned) [Example 2B, 5-(4-{2-[3-(Fluoromethyl)azetidin-1-yl]ethoxy}phenyl)-7-(trifluoromethyl)-5H-[1]benzopyrano[4,3-c]quinolin-2-ol]
500 | 505 | 846 | Oc1ccc2c3c(cnc2c1)-c1cccc(Cl)c1OC3c1ccc(OCCN2CC(CF)C2)cc1 (single isomer, unassigned) [Example 4A, 7-Chloro-5-(4-{2-[3-(fluoromethyl)azetidin-1-yl]ethoxy}phenyl)-5H-[1]benzopyrano[4,3-c]quinolin-2-ol]
6.89 | 11.8 | 28.7 | Oc1ccc2c3c(cnc2c1)-c1cccc(Cl)c1OC3c1ccc(OCCN2CC(CF)C2)cc1 (single isomer, unassigned) [Example 4B, 7-Chloro-5-(4-{2-[3-(fluoromethyl)azetidin-1-yl]ethoxy}phenyl)-5H-[1]benzopyrano[4,3-c]quinolin-2-ol]
522 | 394 | 600 | Oc1ccc2c3c(cnc2c1)-c1ccc(F)cc1OC3c1ccc(OCCN2CC(CF)C2)cc1 (single isomer, unassigned) [Example 5A, 8-Fluoro-5-(4-{2-[3-(fluoromethyl)azetidin-1-yl]ethoxy}phenyl)-5H-[1]benzopyrano[4,3-c]quinolin-2-ol]
9.49 ± 1.1 | 18.2 ± 9.82 | 32 ± 5.31 | Oc1ccc2c3c(cnc2c1)-c1ccc(F)cc1OC3c1ccc(OCCN2CC(CF)C2)cc1 (single isomer, unassigned) [Example 5B, 8-Fluoro-5-(4-{2-[3-(fluoromethyl)azetidin-1-yl]ethoxy}phenyl)-5H-[1]benzopyrano[4,3-c]quinolin-2-ol]
175 | 236 | 253 | Oc1ccc2c3c(cnc2c1)-c1cccc(F)c1OC3c1ccc(OCCN2CC(CF)C2)cc1 (single isomer, unassigned) [Example 6A, 7-Fluoro-5-(4-{2-[3-(fluoromethyl)azetidin-1-yl]ethoxy}phenyl)-5H-[1]benzopyrano[4,3-c]quinolin-2-ol]
9.13 | 13.6 | 28.4 | Oc1ccc2c3c(cnc2c1)-c1cccc(F)c1OC3c1ccc(OCCN2CC(CF)C2)cc1 (single isomer, unassigned) [Example 6B, 7-Fluoro-5-(4-{2-[3-(fluoromethyl)azetidin-1-yl]ethoxy}phenyl)-5H-[1]benzopyrano[4,3-c]quinolin-2-ol]
234 | 434 ± 195 | 206 | Cc1cccc2c1OC(c1ccc(OCCN3CC(CF)C3)cc1)c1c-2cnc2cc(O)ccc12 (single isomer, unassigned) [Example 8A, 5-(4-{2-[3-(Fluoromethyl)azetidin-1-yl]ethoxy}phenyl)-7-methyl-5H-[1]benzopyrano[4,3-c]quinolin-2-ol]
